Results on two compounds are retold here after US11230525B2, “Organic sulfur compound, method for preparing same, and pharmaceutical composition for preventing or treating cancer or an inflammatory disease, containing same as active ingredient” (SOOKMYUNG WOMENS UNIVERSITY INDUSTRY-ACADEMIC COOPERATION …, priority 2016, dated 2022).

The test system of series [1] is prostate cancer cell line (PC-3). Briefly: Cancer proliferation inhibitory activity (SRB, GI50), PC-3. Type of series: cell-based. Particulars: Homo sapiens, 48 hours. The procedure, abridged:
(§1)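 GI50 values come from an SRB protein-staining assay after 48 h of treatment with compound between 0.1 μM and 10 μM.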

For series [2], the system named is gastric cancer cell line (NUGC-3). The experiment in a line: Cancer proliferation inhibitory activity (SRB, GI50), NUGC-3. Type of series: cell-based. Conditions: Homo sapiens, 48 hours. The procedure, abridged: as §1
A further series deals with T1, HDAC 8 (Homo sapiens, UniProt Q9BY41).
T1 sequence (Q9BY41 1-377): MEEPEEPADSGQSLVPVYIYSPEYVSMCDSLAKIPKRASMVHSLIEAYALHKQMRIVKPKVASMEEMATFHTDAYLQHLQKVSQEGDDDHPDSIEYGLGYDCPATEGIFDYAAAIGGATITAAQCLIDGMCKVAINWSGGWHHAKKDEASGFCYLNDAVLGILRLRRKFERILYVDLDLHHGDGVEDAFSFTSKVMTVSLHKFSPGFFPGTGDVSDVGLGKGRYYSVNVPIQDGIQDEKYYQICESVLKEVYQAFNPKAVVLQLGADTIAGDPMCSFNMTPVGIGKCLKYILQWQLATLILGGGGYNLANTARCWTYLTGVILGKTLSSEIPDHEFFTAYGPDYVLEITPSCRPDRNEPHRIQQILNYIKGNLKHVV
The experiment in a line: HDAC enzyme fluorescence assay, HDAC 8. It counts as biochemical. Set-up: Inhibitory activity (%) HDAC 8: concentration or dose not given beside the values. Particulars: for Inhibitory activity (%) HDAC 8: (HDAC inhibitory activity of example compound/HDAC inhibitory activity of SAHA) × 100. An outline of the steps:
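Recombinant HDAC8 preincubated 10 min with compound in 25 mM HEPES pH 8.0, 137 mM NaCl, 1 mM MgCl2, 2.7 mM KCl, then Boc-Lys(acetyl)-AMC added at 37° C (level and time set per isoform). Trypsin development 20 min at room temperature, fluorescence 380/460 nm; activity expressed as percent relative to SAHA reference.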

Series [3] has as its system PC-3 cells, human prostate cancer cells. Briefly: Anticancer activity in prostate cancer xenograft model. Type of series: in vivo, mice. Conditions: for tumor size / cancer proliferation (FIGS. 2, 3): 50 mg/kg (SAHA 100 mg/kg) once a day for 16 days, compared with the non-treated group. The protocol: Particularly, 9×10^6 PC-3 cells, human prostate cancer cells, were inoculated subcutaneously to the right side of female BALB/c nu/nu mice at 5 weeks of age (Nara Biotech, Seoul, Republic of Korea).
(§2) When the tumor size reached 40-60 mm^3, the mice were randomly grouped (4 mice per group), which were the non-treated group (10% dimethylacetamide, 10% tween 80 and 80% distilled water), the groups treated with the compounds of comparative examples 1 and 2 (Ajoene, 50 mg/kg), the groups treated with the compounds of examples 18 and 32 (50 mg/kg), and the group treated with the positive control SAHA (Vorinostat, 100 mg/kg). The treatment was performed once a day for 16 days in total. During the treatment, the tumor size was measured with a vernier caliper, followed by evaluation according to the following formula: length (mm)×width (mm)×height (mm)/2. The weights were measured regularly.
(§3) Upon completion of the treatment (16 days later), the mice were sacrificed and the tumor weights were measured. All the experiments were performed according to the experiment protocol approved by Institutional Animal care and Use Committee (IACUC), Korea Research Institute of Bioscience and Biotechnology (KRIBB).

Series [4] is described as follows: Body weight of mice in prostate cancer xenograft model. It counts as in vivo. Particulars: 50 mg/kg (SAHA 100 mg/kg) once a day for 16 days. On the procedure:
as §2, §3

Structures are written as SMILES. Where two headings read alike, the source gives them in different places.

Regarding `COc1ccc([S+]([O-])C/C=C\SSCc2ccccc2)cc1` (stereo not shown) [Example 32, (Z)-1-benzyl-2-(3-(4-methoxyphenylsulfinyl)prop-1-enyl)disulfane], the results for the GI50 in series [1] and in series [2] were 3190 nM and 3820 nM, respectively. For the same compound, the “Inhibitory activity (%) HDAC 8” value at HDAC 8 was found to be 150.4%. Besides, the half-inhibitory concentration (IC50) at HDAC 8 (recombinant HDAC enzyme, Boc-Lys(acetyl)-AMC, read-out: IC50 HDAC 8) is 37 nM. The “tumor size / cancer proliferation (FIGS. 2, 3)” value in series [3] is reported as “cancer proliferation was inhibited”. The “changes in weight of mice / visible toxicity (FIG. 1)” value in series [4] is recorded as “only normal weight increases were observed”.

For `CCCSS/C=C\C[S+]([O-])c1cccc(OC)c1` (stereo not shown) [Example 18, (Z)-1-(3-(3-methoxyphenylsulfinyl)prop-1-enyl)-2-propyldisulfane], the GI50 in series [1] was 1920 nM; in series [2], 1710 nM. Also, at HDAC 8, the “Inhibitory activity (%) HDAC 8” value amounted to 147.2%. The IC50 at HDAC 8 (read-out: IC50 against HDAC 8) was determined as 35 nM. The “tumor size / cancer proliferation (FIGS. 2, 3)” value in series [3] is listed as “inhibit cancer proliferation similarly to the positive control SAHA”. Besides, in series [3] (50 mg/kg once a day, tumor extracted after 16 days), the “tumor weight (FIG. 4)” value is “lighter than the tumor weight in the non-treated group”. Moreover, the “changes in weight of mice / visible toxicity (FIG. 1)” value in series [4] is given as “only normal weight increases were observed”.
